The values that follow come from US6750235B1, “Pramipexole as a treatment for cocaine craving” (The General Hospital Corporation, priority 1999, dated 2004).

This assay is described as follows: Case report: treatment of cocaine craving using pramipexole (patient). It counts as in vivo, human. The following applies: one patient; lamotrigine up to 200 mg, before pramipexole was added.

Regarding `Nc1nnc(-c2cccc(Cl)c2Cl)c(N)n1` [lamotrigine], the “mood (depression)” value was “modest improvement”.
